Active and inactive are the calls of the source. The rule behind the calls is not given here.
Assays:
[1] = target: T1, Signal transducer and activator of transcription 3 (Homo sapiens, UniProt P40763); experiment: Inhibition of STAT3 phosphorylation at Tyr705 residue in human AGS cells incubated for 24 hrs by Western blot analysis; type: cell-based; settings: dose 1-3 µM, DDE = dose-dependent effect
Target sequence in this assay (P40763 whole entry): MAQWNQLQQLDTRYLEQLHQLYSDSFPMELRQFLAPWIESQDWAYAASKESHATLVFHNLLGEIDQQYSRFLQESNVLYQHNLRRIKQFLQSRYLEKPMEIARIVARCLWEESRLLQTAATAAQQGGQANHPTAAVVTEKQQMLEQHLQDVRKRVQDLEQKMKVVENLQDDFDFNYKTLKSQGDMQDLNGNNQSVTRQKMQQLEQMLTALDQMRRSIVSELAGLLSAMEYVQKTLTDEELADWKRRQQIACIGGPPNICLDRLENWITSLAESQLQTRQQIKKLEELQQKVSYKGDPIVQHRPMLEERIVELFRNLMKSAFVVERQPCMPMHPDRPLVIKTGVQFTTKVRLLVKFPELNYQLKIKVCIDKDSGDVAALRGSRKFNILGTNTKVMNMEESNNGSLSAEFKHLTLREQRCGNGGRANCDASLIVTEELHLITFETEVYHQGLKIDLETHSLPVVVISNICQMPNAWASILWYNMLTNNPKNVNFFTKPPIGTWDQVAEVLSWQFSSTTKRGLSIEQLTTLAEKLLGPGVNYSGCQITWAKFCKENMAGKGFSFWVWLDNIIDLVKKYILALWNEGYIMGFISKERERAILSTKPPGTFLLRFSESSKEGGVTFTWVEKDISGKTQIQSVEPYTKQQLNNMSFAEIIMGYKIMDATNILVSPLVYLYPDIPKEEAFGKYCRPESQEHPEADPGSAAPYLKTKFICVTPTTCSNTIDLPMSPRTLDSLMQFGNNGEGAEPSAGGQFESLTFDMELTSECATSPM

MGC-803 [2] = experiment: Antitumor activity against human MGC-803 cells xenografted in BALB/c nude mouse assessed as tumor growth inhibition at 5 mg/kg, ip measured every day for 20 days; type: functional; parameters: scale not given: the % may be the effect or the level left; settings: time 20 day
MGC-803 [3] = experiment: Antitumor activity against human MGC-803 cells xenografted in BALB/c nude mouse assessed as reduction in Bcl-xL expression at 15 mg/kg, ip measured every day for 20 days by immunohistochemical analysis; type: functional, organism-based; settings: time 20.0 day
AGS [4] = experiment: Inhibition of colony formation in human AGS cells at 0.5 uM incubated for 10 to 15 days by crystal violet staining based assay; type: functional, cell-based; settings: time 10-15 day
AGS [5] = experiment: Inhibition of cell invasion in human AGS cells measured after 24 hrs by crystal violet staining based imaging transwell assay; type: functional; settings: dose 1-3 µM, DDE = dose-dependent effect
MGC-803 [6] = experiment: Antitumor activity against human MGC-803 cells xenografted in BALB/c nude mouse assessed as reduction in c-myc expression at 5 mg/kg, ip measured every day for 20 days by immunohistochemical analysis; type: functional, organism-based; settings: time 20.0 day
[7] = target: T1, Signal transducer and activator of transcription 3; experiment: Inhibition of STAT3 at Y705 residue phosphorylation at in human MGC-803 cells at 5 uM pretreated for 48 hrs followed by compound washout and measured after 72 hrs by immunoblotting analysis
Target sequence in this assay (P40763 whole entry, looked up): as the sequence (P40763 whole entry) above

[8] = Volume of distribution at steady state in ICR mouse at 5 mg/kg, iv measured upto 24 hrs by LC-MS/MS analysis; type: ADME, organism-based; settings: in vivo, read-out: Vdss
[9] = target: T1, Signal transducer and activator of transcription 3; experiment: Inhibition of STAT3 transcriptional activity in human AGS cells assessed as downregulation of Bcl-xL protein expression at 1 to 3 uM incubated for 24 hrs by Western blot analysis; type: cell-based; settings: dose 1-3 µM
Target sequence in this assay (P40763 whole entry): as above

[10] = Antiproliferative activity against […] H9c2 cells assessed as reduction in cell viability incubated for 72 hrs by CCK-8 assay; type: toxicity, cell-based; settings: rat
[11] = target: T1, Signal transducer and activator of transcription 3; experiment: Inhibition of STAT3 transcriptional activity in human MGC-803 cells assessed as downregulation of C-myc protein expression at 3 to 5 uM incubated for 24 hrs by Western blot analysis; type: cell-based; settings: dose 3-5 µM
Target sequence in this assay (P40763 whole entry): as above

MGC-803 [12] = experiment: Antitumor activity against human MGC-803 cells xenografted in BALB/c nude mouse assessed as reduction in c-myc expression at 15 mg/kg, ip measured every day for 20 days by immunohistochemical analysis; type: functional, organism-based; settings: time 20.0 day
MGC-803 [13] = experiment: Inhibition of cell migration in human MGC-803 cells assessed as cell migration incubated for 24 hrs by microscopy based by scratch wound healing assay; type: functional; settings: dose 1-3 µM, DDE = dose-dependent effect
[14] = Toxicity in nude BALB/c nude mouse xenografted with human MGC-803 cells assessed as morphological changes in spleen at 5 to 15 mg/kg, ip measured every day for 20 days by H and E staining based assay; type: organism-based; settings: in vivo, 480 h, time 20 day
[15] = Toxicity in nude BALB/c nude mouse xenografted with human MGC-803 cells assessed as morphological changes in heart at 5 to 15 mg/kg, ip measured every day for 20 days by H and E staining based assay; type: organism-based; settings: in vivo, 480 h, time 20 day
AGS [16] = experiment: Induction of apoptosis in human AGS cells at 1 uM incubated for 72 hrs by V-FITC/PI staining based flow cytometry assay; type: functional
[17] = target: T1, Signal transducer and activator of transcription 3; experiment: Inhibition of STAT3 transcriptional activity transfected in HEK293T cells at 3 to 5 uM incubated for 24 hrs by dual-ludferase reporter gene assay; type: cell-based; settings: dose 3-5 µM
Target sequence in this assay (P40763 whole entry): as above

[18] = Half life in ICR mouse at 5 mg/kg, iv measured upto 24 hrs by LC-MS/MS analysis; type: ADME, organism-based; settings: in vivo
MGC-803 [19] = experiment: Antitumor activity against human MGC-803 cells xenografted in ip dosed BALB/c nude mouse assessed as supression of tumor growth measured every day for 20 days; type: functional, organism-based; settings: dose 5-15 mg/kg, time 20.0 day, DDE = dose-dependent effect
in vivo = type: ADME, organism-based; settings: ICR, mouse, iv, 5 mg/kg
AGS [20] = experiment: Inhibition of cell migration in human AGS cells assessed as cell migration incubated for 24 hrs by microscopy based by scratch wound healing assay; type: functional; settings: dose 1-3 µM, DDE = dose-dependent effect
MGC-803 [21] = experiment: Antiproliferative activity against human MGC-803 cells assessed as reduction in cell viability measured after 72 hrs by CCK-8 assay; type: functional, cell-based; settings: MGC-803, 72 h
[22] = target: T1, Signal transducer and activator of transcription 3; experiment: Inhibition of IL-6 induced FLAG/HA-tagged STAT3 dimerization in human HEK293T cells pretreated for 24 hrs followed by IL-6 stimulation and measured after 1 hr by immunoprecipitation assay; type: cell-based; settings: time 25.0 hrs, DDE = dose-dependent effect
Target sequence in this assay (P40763 whole entry): as above

[23] = target: T1, Signal transducer and activator of transcription 3; experiment: Binding affinity to full length wild type STAT3-SH2 domain (unknown origin) assessed as association constant by SPR analysis
Target sequence in this assay (P40763 whole entry): as above

MGC-803 [24] = experiment: Antitumor activity against human MGC-803 cells xenografted in BALB/c nude mouse assessed as reduction in Ki67 expression at 5 mg/kg, ip measured every day for 20 days by immunohistochemical analysis; type: functional, organism-based; settings: time 20.0 day
[25] = target: T1, Signal transducer and activator of transcription 3; experiment: Inhibition of STAT3 transcriptional activity in human AGS cells assessed as downregulation of C-myc protein expression at 1 to 3 uM incubated for 24 hrs by Western blot analysis; type: cell-based; settings: dose 1-3 µM
MGC-803 [26] = experiment: Antitumor activity against human MGC-803 cells xenografted in BALB/c nude mouse assessed as tumor growth inhibition at 15 mg/kg, ip measured every day for 20 days; type: functional; parameters: scale not given: the % may be the effect or the level left; settings: time 20 day

CN(CC(=O)N(Cc1ccc(C2CCCCC2)cc1)c1ccc(B(O)O)cc1)S(=O)(=O)c1c(F)c(F)c(F)c(F)c1F
inhibition [1]: Dde | Activity (MGC-803 [2]): 65.14% | Activity (MGC-803 [3]): Active | inhibition (AGS [4]): Active | inhibition (AGS [5]): Dde | Activity (MGC-803 [6]): Active | inhibition [7]: Active | Vd [8]: 18.7 L/kg | inhibition [9]: Active | IC50 at 72 h [10]: 9.05 µM | inhibition [11]: Active | Activity (MGC-803 [12]): Active | inhibition (MGC-803 [13]): Dde | Activity [14]: Non-Toxic | Activity [15]: Non-Toxic | Activity (AGS [16]): 13% | inhibition [17]: Active | half-life [18]: 1.25 h | Activity (MGC-803 [19]): Dde | AUC(0-t) at 24 h (in vivo): 485 ng·h/mL | inhibition (AGS [20]): Dde | IC50 (MGC-803 [21]): 4.73 µM | inhibition [22]: Dde | Ka [23]: 1.25 10^3/M/s | Activity (MGC-803 [24]): Active | inhibition [25]: Active | Activity (MGC-803 [26]): 79.13%

Source: ChEMBL document CHEMBL5214948, “Boronic Acid: A Novel Pharmacophore Targeting Src Homology 2 (SH2) Domain of STAT3” (J Med Chem, 2022)
